Results on one compound are retold here after patent US9487530B2, “Transient protection of normal cells during chemotherapy” (G1 Therapeutics, Inc., priority 2013, dated 2016).

In experiment [1] the test system is blood cell counts. Put plainly: 5FU-induced myelosuppression, single dose. Format: in vivo, mouse. Particulars: 150 mg/kg oral, 30 minutes before 5FU 150 mg/kg i.p. Here is the method: Complete blood cell counts were measured every two days starting on day six.
Experiment [2] deals with Rb-positive cell line (WM2664 or tHS68). Kind of experiment: EdU proliferation, RB-intact Cdk4/6-dependent cell line. Format: cell-based. The conditions noted are these: 24 hours treatment. Here is the method:
(§1) The effect of Cdk4/6 inhibition on proliferation was measured by EdU incorporation. An RB-intact, Cdk4/6-dependent cell line (WM2664 or tHS68) and a panel of RB-negative SCLC cell lines (H69, H82, H209, H345, NCI417, or SHP-77) were analyzed for growth inhibition by the various CDK4/6 inhibitors.

Experiment [3] relates to blood cell counts. Put plainly: 5FU-induced myelosuppression, repeated cycles. Format: in vivo, mouse. Particulars: 150 mg/kg oral + 5FU 150 mg/kg every 21 days, 3 cycles; Day 10 of third cycle. From the text: This was repeated every 21 days for 3 cycles. Blood samples were taken for hematology analysis on Day 10 of Cycles 1-3.
The subject of experiment [4] is telomerized human diploid fibroblasts (tHDFs; tHS68). Put plainly: Protection from chemotherapy-induced cell death, DNA damage and caspase activation in fibroblasts. Format: cell-based. Here is the method: Cell survival was determined by Cell TiterGlo assay per manufacturer's recommendations. For both γ-H2AX and caspase 3/7 assays, cells were plated and allowed to become adherent for 24 hours. […] For γ-H2AX, cells were harvested for analysis 8 hours after chemotherapy exposure. For the γ-H2AX assay, cells were fixed, permeabilized, and stained with anti-γ-H2AX as per the γ-H2AX Flow Kit (Millipore) and quantitated by flow cytometry. Data was analyzed using FlowJo 2.2 software developed by TreeStar, Inc. For the in vitro caspase 3/7 assay, cells were harvested 24 hours post chemotherapy treatment. Caspase 3/7 activation was measured using the Caspase-Glo® 3/7 Assay System (Promega) per manufacturer's recommendations.

The subject of experiment [5] is human renal proximal tubule cells. Put plainly: Cell cycle of renal proximal tubule cells with etoposide or cisplatin. The conditions noted are these: 10-1000 nM in combination with etoposide or cisplatin. Format: cell-based. Here is the method:
The ability of Cdk4/6 inhibitors to protect human renal proximal tubule cells from chemotherapy induced DNA damage was analyzed using etoposide and cisplatin. […] At the conclusion of the experiment, cells were harvested, fixed, and stained with propidium iodide (a DNA intercalator), which fluoresces strongly red (emission maximum 637 nm) when excited by 488 nm light. Samples were run on Dako Cyan flow cytometer.

In experiment [6] the test system is whole bone marrow, HSPC and differentiated hematopoietic cells. Put plainly: EdU incorporation in mouse hematopoietic cell lineages. Format: in vivo. Particulars: 150 mg/kg oral gavage; for inhibition at 150 mg/kg: Mus musculus. How it is done: Ten-hours later, all mice were given a single i.p. injection of 100 mcg EdU (5-ethynyl-2′-deoxyuridine) to label cells in S-phase of the cell cycle. All treated mice were euthanized 2 hours after EdU injection, bone marrow cells were harvested and processed for flow cytometric analysis of EdU-incorporation (FIG. 13).

Experiment [7] deals with RB-negative SCLC cell lines (H69, H82, H209, H345, NCI417, SHP-77). Kind of experiment: EdU proliferation, RB-negative SCLC cell lines. Format: cell-based, human. Particulars: 24 hours treatment. How it is done: as §1
In experiment [8] the test system is Rb phosphorylation at Ser780 and Ser807/811. Put plainly: Rb phosphorylation western blot. Format: cell-based. The conditions noted are these: 300 nM; Rb-dependent cell lines (tHS68, WM2664); by 16 hours post exposure. How it is done: The Cdk4/6-cyclin D complex is essential for progression from G1 to the S-phase of the DNA cell cycle. This complex phosphorylates the retinoblastoma tumor suppressor protein (Rb). […] Samples were lysed and protein was assayed by western blot analysis. Rb phosphorylation was measured at two sites targeted by the Cdk4/6-cyclin D complex, Ser780 and Ser807/811 using species specific antibodies.
(A western blot detects proteins with antibodies after separation by electrophoresis.)

Experiment [9] concerns A2058 cells (CDK4/6-independent cell line). Kind of experiment: Cell cycle arrest (propidium iodide), A2058. Format: cell-based. Particulars: 300 nM for 24 hours. The text has this: To test the ability of Cdk4/6 inhibitors to induce a clean G1-arrest, a cell based screening method was used consisting of two Cdk4/6-dependent cell lines (tHS68 and WM2664; Rb-positive) and one Cdk4/6-independent (A2058; Rb-negative) cell line. […] At the conclusion of the experiment, cells were harvested, fixed, and stained with propidium iodide (a DNA intercalator), which fluoresces strongly red (emission maximum 637 nm) when excited by 488 nm light. Samples were run on Dako Cyan flow cytometer and >10,000 events were collected for each sample. Data were analyzed using FlowJo 2.2 software developed by TreeStar, Inc.

Bounds are passed on as bounds.

As to `CN1CCN(c2ccc(Nc3ncc4cc5n(c4n3)C3(CCCCC3)CNC5=O)nc2)CC1` [T, 2′-((5-(4-methylpiperazin-1-yl)pyridin-2-yl)amino)-7′,8′-dihydro-6′H-spiro[cyclohexane-1,9′-pyrazino[1′,2′:1,5]pyrrolo[2,3-d]pyrimidin]-6′-one], the “recovery of blood cell lineages after 5FU” value in the experiment with blood cell counts [1] is “more rapid recovery”. Further, the “proliferation (cells in S-phase by EdU)” value in experiment [2] is given as “inhibits”. Moreover, in the experiment with blood cell counts [3], the “myelosuppression with repeated 5FU” value is listed as “reduced the myelosuppression”. In addition, the “cell survival (Cell TiterGlo)” value in experiment [4] (in the presence of etoposide (5 uM) or carboplatin (100 uM)) is “dose dependent cell survival”. Besides, the “DNA damage as measured by gamma-H2AX formation” value in experiment [4] (prior to carboplatin, doxorubicin, etoposide, camptothecin or paclitaxel) is given as “attenuated DNA damage”. The “caspase 3/7 activation” value in experiment [4] (prior to carboplatin, doxorubicin, etoposide, camptothecin, and paclitaxel) is on record as “robust decrease in caspase 3/7 activation in a dose-dependent manner”. The cell cycle distribution entry in experiment [5] was “decrease in the percentage of S-phase cells, with a corresponding rise in the percentage of cells in the G0-G1 phase”. For the same compound, the “reduction in EdU+ cell frequencies” value in experiment [6] (B cell progenitors) was > 80%; in experiment [6] (T cell progenitors), > 99%. For the same compound, the “reduction in EdU+ cell frequency” value is 76-92% in experiment [6] (CMP, GMP, MEP and CLP); 46% in experiment [6] (Mac1+G1+ myeloid cells); 58% in [6] (Ter119+ erythroid cells). For the same compound, the “reduction of EdU+ cell frequency” value in experiment [6] (unfractionated whole bone marrow cells) is listed as ~70%. The inhibition at 150 mg/kg in experiment [6] (Hematopoietic stem cell, hematopoietic stem cells (HSC)) worked out at 74%; in experiment [6] (multipotent progenitors (MPP)) it was 90%. Besides, the “growth (cells in S-phase by EdU)” value in [7] is given as “does not affect the growth”. For the same compound, the Rb phosphorylation result in [8] is recorded as “blocks Rb phosphorylation”. Further, the S-phase peak entry in [9] is “does not cause a loss of the S-phase peak”.

For orientation: inhibition means the share of the control response that was lost under treatment.
